The values below come from PMC6428052 (Journal of medicinal chemistry, 2018).

For series [1], the system named is 45 receptors, transporters and ion channels. The experiment in a line: PDSP comprehensive off-target screen. Format: binding.
The target of a further series is 5HT2B (Homo sapiens, UniProt P41595). Nature of the series: PDSP off-target binding. To be noted: read-out: Ki, 5HT2B.
For the next series, the target named is H3 (Homo sapiens, UniProt Q9Y5N1). The experiment in a line: PDSP off-target binding. The conditions noted are these: read-out: Ki, H3.
The target of a further series is T1, hP2Y14R (Homo sapiens, UniProt Q15391).
T1 sequence (Q15391 1-338): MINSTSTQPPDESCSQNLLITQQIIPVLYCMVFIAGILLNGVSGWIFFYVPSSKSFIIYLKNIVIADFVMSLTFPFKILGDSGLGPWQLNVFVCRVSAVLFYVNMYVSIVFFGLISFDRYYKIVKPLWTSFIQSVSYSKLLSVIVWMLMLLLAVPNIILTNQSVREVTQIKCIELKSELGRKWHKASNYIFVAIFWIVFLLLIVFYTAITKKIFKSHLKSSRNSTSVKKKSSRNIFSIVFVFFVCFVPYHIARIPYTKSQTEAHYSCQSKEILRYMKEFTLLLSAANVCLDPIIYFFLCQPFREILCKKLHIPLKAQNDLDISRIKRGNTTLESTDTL
The class given is binding. To be noted: for fold less potent than 7 in P2Y14R binding: primary amino sulfonamides with two and four methylenes vs three.

The next series can be described thus: Plasma stability. The conditions noted are these: at 120 min; plasma of three species: human, rat and mouse.
For the next series, the system named is CACO-2 cell. Nature of the series: CACO-2 cell permeability. The conditions noted are these: CACO-2 cells. (Passage across Caco-2 layers is used to estimate intestinal permeability.)
The nature of series [2]: In vivo pharmacokinetics in rat. The conditions noted are these: male Sprague Dawley rat, oral administration 1–10 mg/kg.
Series [3] can be described thus: Stability in simulated gastric and intestinal fluids. To be noted: after 240 min.
Where [4] appears, read: carboxylate replaced by tetrazole.

Chain of H3 (Q9Y5N1 whole entry): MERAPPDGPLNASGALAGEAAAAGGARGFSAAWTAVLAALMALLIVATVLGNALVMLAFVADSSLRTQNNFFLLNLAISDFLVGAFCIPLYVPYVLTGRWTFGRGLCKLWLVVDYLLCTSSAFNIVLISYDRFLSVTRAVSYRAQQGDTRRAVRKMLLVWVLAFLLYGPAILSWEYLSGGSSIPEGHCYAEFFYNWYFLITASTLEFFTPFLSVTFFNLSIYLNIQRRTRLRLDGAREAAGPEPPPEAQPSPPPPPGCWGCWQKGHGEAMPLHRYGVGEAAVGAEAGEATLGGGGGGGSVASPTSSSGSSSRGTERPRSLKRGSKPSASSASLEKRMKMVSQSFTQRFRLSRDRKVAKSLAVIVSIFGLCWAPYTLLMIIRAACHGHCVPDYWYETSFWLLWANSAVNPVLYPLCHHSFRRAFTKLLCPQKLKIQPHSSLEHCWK
Chain of 5HT2B (P41595 whole entry, species assumed): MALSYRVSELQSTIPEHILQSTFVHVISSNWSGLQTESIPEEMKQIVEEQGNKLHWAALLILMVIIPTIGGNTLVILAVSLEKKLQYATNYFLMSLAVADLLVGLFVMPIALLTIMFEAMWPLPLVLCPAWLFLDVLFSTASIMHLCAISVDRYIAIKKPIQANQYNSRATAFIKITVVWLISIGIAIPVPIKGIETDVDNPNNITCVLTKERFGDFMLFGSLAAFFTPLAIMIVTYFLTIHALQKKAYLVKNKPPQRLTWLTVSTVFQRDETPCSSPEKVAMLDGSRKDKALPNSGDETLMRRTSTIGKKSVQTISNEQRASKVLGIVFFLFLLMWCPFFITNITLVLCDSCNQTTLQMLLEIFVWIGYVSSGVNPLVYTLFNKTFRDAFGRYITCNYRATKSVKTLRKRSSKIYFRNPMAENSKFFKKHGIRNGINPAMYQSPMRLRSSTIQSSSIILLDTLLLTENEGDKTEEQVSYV

Turning to `O=C(O)c1cc(O)c2ccc(-c3ccc(C(F)(F)F)cc3)cc2c1` [37d], in series [1], the “Off-target interactions in the comprehensive PDSP screen” value (“Off-target interactions” below) is reported as “bound only to NET”.
Turning to `CC(C)(C)OC(=O)NCCCCCCn1cc(CCCCN2CCC(c3ccc(-c4cc(C(=O)O)cc5cc(-c6ccc(C(F)(F)F)cc6)ccc45)cc3)CC2)nn1` [compound 3c, 4-(4-(1-(4-(1-(6-((tert-Butoxycarbonyl)amino)hexyl)-1H-1,2,3-triazol-4-yl)butyl)piperidm-4-yl)phenyl)-7-(4-(trifluoromethyl)phenyl)-2-naphthoic acid], the Ki (in general, the equilibrium dissociation constant of an inhibitor or competing ligand from its target) at 5HT2B worked out at 2.78 µM; on H3 it was 2.77 µM.
As for `NCCCCCCn1cc(CCCCN2CCC(c3ccc(-c4cc(C(=O)O)cc5cc(-c6ccc(C(F)(F)F)cc6)ccc45)cc3)CC2)nn1` [compound 3d, 4-(4-(1-(4-(1-(6-Ammohexyl)-1H-1,2,3-triazol-4-yl)butyl)piperidm-4-yl)phenyl)-7-(4-(trifluoromethyl)phenyl)-2-naphthoic acid], the “Off-target interactions” value in series [1] is on record as “displayed extensive off-target interactions with biogenic amine receptors”.
In the case of `NCCNS(=O)(=O)c1ccc(-c2cc(C(=O)O)cc(-n3cc(-c4ccc(C(F)(F)F)cc4)nn3)c2)s1` [compound 5, 3-(5-(N-(2-Aminoethyl)sulfamoyl)thiophen-2-yl)-5-(4-(4-(trifluoromethyl)phenyl)-1H-1,2,3-triazol-1-yl)benzoic acid], the “fold less potent than 7 in P2Y14R binding” value on hP2Y14R was 3 fold.
With `NCCCNS(=O)(=O)c1ccc(-c2cc(C(=O)O)cc(-n3cc(-c4ccc(C(F)(F)F)cc4)nn3)c2)s1` [compound 7, 3-(5-(N-(3-Ammopropyl)sulfamoyl)thiophen-2-yl)-5-(4-(4-(trifluoromethyl)phenyl)-1H-1,2,3-triazol-1-yl)benzoic acid], on hP2Y14R, the “fold more potent than its Boc derivative 6” value is 12 fold.
For the compound `NCCCCNS(=O)(=O)c1ccc(-c2cc(C(=O)O)cc(-n3cc(-c4ccc(C(F)(F)F)cc4)nn3)c2)s1` [compound 9, 3-(5-(N-(4-Ammobutyl)sulfamoyl)thiophen-2-yl)-5-(4-(4-(trifluoromethyl)phenyl)-1H-1,2,3-triazol-1-yl)benzoic acid], at hP2Y14R, the “fold less potent than 7 in P2Y14R binding” value is listed as 3 fold.
In the case of `O=C(O)c1cc(-c2ccc(S(=O)(=O)NCCCCO)s2)cc(-n2cc(-c3ccc(C(F)(F)F)cc3)nn2)c1` [compound 10, 3-(5-(N-(4-Hydroxybutyl)sulfamoyl)thiophen-2-yl)-5-(4-(4-(trifluoromethyl)phenyl)-1H-1,2,3-triazol-1-yl)benzoic acid], the “fold less potent than primary aminobutyl congener 9” value on hP2Y14R is reported as 4 fold.
Consider `CCN(CC)CC.NS(=O)(=O)c1ccc(-c2cc(C(=O)O)cc(-n3cc(-c4ccc(C(F)(F)F)cc4)nn3)c2)cc1` [compound 16, 4'-Sulfamoyl-5-(4-(4-(trifluoromethyl)phenyl)-1H-1,2,3-triazol-1-yl)-[1,1'-biphenyl]-3-carboxylic acid], for which the “fold more potent than thienyl sulfonamide 13” value at hP2Y14R came to 10 fold.
For the compound `CC(C)(C)OC(=O)N1CCN(Cc2ccc(-c3cc(C(=O)O)cc(-n4cc(-c5ccc(C(F)(F)F)cc5)nn4)c3)s2)CC1` [compound 17, 3-(5-((4-(tert-Butoxycarbonyl)piperazin-1-yl)methyl)thiophen-2-yl)-5-(4-(4-(trifluoromethyl)phenyl)-1H-1,2,3-triazol-1-yl)benzoic acid], the “fold weaker than methylpiperazine 18” value on hP2Y14R (Boc derivative vs free amine) turned out to be 34 fold.
As for `NCCCNC(=O)c1ccc(-c2cc(C(=O)O)cc(-n3cc(-c4ccc(C(F)(F)F)cc4)nn3)c2)s1` [compound 20, 3-(5-((3-Aminopropyl)carbamoyl)thiophen-2-yl)-5-(4-(4-(trifluoromethyl)phenyl)-1H-1,2,3-triazol-1-yl)benzoic acid], in series [1], the “Off-target interactions” value is “did not display extensive off-target interactions with biogenic amine receptors”.
Regarding `O=C(O)c1cc(-c2ccc(C(=O)N3CCNCC3)s2)cc(-n2cc(-c3ccc(C(F)(F)F)cc3)nn2)c1` [compound 22, 3-(5-(Piperazine-1-carbonyl)thiophen-2-yl)-5-(4-(4-(trifluoromethyl)phenyl)-1H-1,2,3-triazol-1-yl)benzoic acid], the “fold less potent than thienyl sulfonamide 12” value on hP2Y14R (cyclic amines) is on record as 2 fold.
As to `CCN(CC)CC.NC(=O)c1ccc(-c2cc(C(=O)O)cc(-n3cc(-c4ccc(C(F)(F)F)cc4)nn3)c2)o1` [compound 24, 3-(5-Carbamoylfuran-2-yl)-5-(4-(4-(trifluoromethyl)phenyl)-1H-1,2,3-triazol-1-yl)benzoic acid], the “fold less potent than carboxamide 30” value on hP2Y14R turned out to be 10 fold.
`CCN(CC)CC.NC(=O)c1ccc(-c2cc(C(=O)O)cc(-n3cc(-c4ccc(C(F)(F)F)cc4)nn3)c2)cc1` [compound 30, 4'-Carbamoyl-5-(4-(4-(trifluoromethyl)phenyl)-lH-l,2,3-triazol-l-yl)-[l,l'-biphenyl]-3-carboxylic acid]: the “Off-target interactions” value in series [1] was “did not bind appreciably to any other sites”. In addition, the remaining in plasma in “Plasma stability” is 94 – 100 % remaining. In addition, the “Papp, apical to basal” value in the series on CACO-2 cell was 0.0 X 10^−6 cm/sec. For the same compound, the oral bioavailability entry in series [2] is “lack of bioavailability”. Besides, in series [3], the “remaining in simulated gastric fluid” value was 100 % remaining and the “remaining in simulated intestinal fluid” value was 100 % remaining.
Take `FC(F)(F)c1ccc(-c2cn(-c3cc(-c4ccc(C5CCNCC5)cc4)cc(-c4nnn[nH]4)c3)nn2)cc1` [compound 35, 4-(3'-(1H-Tetrazol-5-yl)-5'-(4-(4-(trifluoromethyl)phenyl)-1H-1,2,3-triazol-1-yl)-[1,1'-biphenyl]-4-yl)piperidine]: the “fold reduction of affinity relative to 2a” value on hP2Y14R (setting [4]) turned out to be 30 fold.
Consider `NCCCNC(=O)c1ccc(-c2cc(-c3nnn[nH]3)cc(-n3cc(-c4ccc(C(F)(F)F)cc4)nn3)c2)s1` [compound 36a, 5-(3-(1#-Tetrazol-5-yl)-5-(4-(4-(trifluoromethyl)phenyl)-1H-1,2,3-triazol-1-yl)phenyl)-N-(3-aminopropyl)thiophene-2-carboxamide], for which, at hP2Y14R, the “fold reduction of affinity relative to 20” value is recorded as 7 fold.
With `NC(=O)c1ccc(-c2cc(-c3nnn[nH]3)cc(-n3cc(-c4ccc(C(F)(F)F)cc4)nn3)c2)cc1` [compound 36b, 3'-(1H-Tetrazol-5-yl)-5'-(4-(4-(trifluoromethyl)phenyl)-1H-1,2,3-triazol-1-yl)-[1,1'-biphenyl]-4-carboxamide], the “fold less potent than carboxamide 30” value on hP2Y14R was 9 fold.
Consider `CC(C)(C)NC(=O)c1ccc(-c2cc(-c3nnn[nH]3)cc(-n3cc(-c4ccc(C(F)(F)F)cc4)nn3)c2)cc1` [compound 36c, N-(terf-Butyl)-3'-(1H-tetrazol-5-yl)-5'-(4-(4-(trifluoromethyl)phenyl)-1H-1,2,3-triazol-1-yl)-[1,1'-biphenyl]-4-carboxamide], for which, on hP2Y14R (setting [4]), the “fold reduction of affinity relative to 34” value was found to be 3 fold.
`O=C(O)c1cc(O)cc(-n2cc(-c3ccc(C(F)(F)F)cc3)nn2)c1` [compound 37a]: the “fold less potent than carboxamide 30” value on hP2Y14R is 60 fold.
